Reference: patent US9855249B2, “Isoxazole compounds and methods for the treatment of cystic fibrosis” (FLATLEY DISCOVERY LAB, LLC, priority 2014, dated 2018)

System: CFTR mediated chloride current in Primary CF airway epithelial cells
Assay: Equivalent current assay in primary CF airway epithelial cells (NAUC)
Assay type: cell-based
Settings: 24 h treatment, stimulated with forskolin and VX770, normalized to positive control 3 μM VX809
Experimental: Primary CF airway epithelial cells were obtained from the UNC Cystic Fibrosis Tissue Procurement and Cell Culture Core. The cells are grown at 37° C. in a Heracell 150i incubator using growth media (BEGM, Fischer). Cells were then transferred to differentiation media (ALI, UNC) for a minimum of 4 weeks on coated Costar snapwells. Two days before the Ussing assay the mucus on the apical surface of the cells was aspirated after incubating with 200 μL of differentiation Media for at least thirty (30) minutes. One day before the Ussing assay test compounds were added to the basolateral surface of the cells at various test concentrations dissolved in DMSO. Duplicate wells were prepared giving a n=3 or n=4 protocol.
Cells were treated for 24 hours with various combinations and concentrations of the test articles, reference standard (3 μM VX809, positive control). Compounds stock solutions were prepared in DMSO and diluted 1/1000 into ALI media to their final assay concentration. Cells were treated with combination solutions (2 mL of each dilution) and incubated at 37° C. for 24 h.
For the equivalent current assay, cells on four Transwell (24-well) plates were treated. Each Transwell plate was filled with 200 μl of HBS on the apical surface and 2 ml on the basolateral surface. Plates were placed horizontally in a heated mount at 37° C., and equilibrated for several minutes. Resting current was measured for 15 min and then blocked by the apical addition of 5 μM benzamil. After 20 min, 10 μM forskolin and 1 μM VX770 were added to both the apical and basolateral side to stimulate CFTR. An increase in chloride current is seen as an upward deflection of the trace. After another 30 min, CFTR-172 (a CFTR inhibitor, 2 μM) and/or bumetanide (20 μM) was added to block CFTR mediated chloride current.
The raw data, current vs. time for the Ussing chamber (sampling interval: 10 s) and voltage vs. time and resistance vs. time for the equivalent current assay (sampling interval: 5 minutes) were transferred to Excel (Microsoft Office Professional, version 14.0.7106.5003) for analysis. CFTR specific current was measured as the average amplitude of the increase in current elicited upon addition forskolin and ending upon addition of the CFTR channel specific blocker CFTR-172. This average is equivalent to the sum of the average forskolin activated and the average VX770-potentiated currents. The average current measured in vehicle (0.1% DMSO) treated cells, Iv, was subtracted from the current for the test article, ITA, or from the corrector reference standard VX809 (3 μM ISTD. For replicate measurements, the average vehicle subtracted response for the test article, was normalized to the average vehicle subtracted […] response of the reference corrector VX809 (3 μM). INSC=(ITA−IV)(ave)/(ISTD−IV)(ave) (Equation 1)
A second endpoint, for the equivalent current assay, evaluated was NAUC, the normalized area under the curve (AUC) measuring the response after addition of forskolin and VX770 to the time point right before the addition of the CFTR inhibitor. The AUC is effectively the average response multiplied by the duration of the response. The AUC of the test article, AUCTA was then corrected by subtracting the average vehicle response, AUCV,ave over the same time range, and normalized as for the inhibitor-sensitive current to the difference of the corrector reference standard VX809 (3 μM VX809r,ave and the vehicle response: NAUCTA=[AUCTA−AUCV,ave]/[AUCVx809r,ave−AUCV,ave](Equation 2).
The normalized value for DMSO is 0.0 and for VX-809 alone is 1.0. Combinations of compounds with VX-809 that give normalized values greater than 1.0 show activity in the combination assay. A value of 2 means the test compound doubles the effect to VX-809 alone.
Experiments were run with a minimum of n=4 replicates per concentration. […]

Compound	NAUC (normalized area under the curve), Test Conc 3 uM	NAUC (normalized area under the curve), Test Conc 10 uM
O=C(NCCCCC(=O)N1CCC1)c1cc(-c2ccc(F)cc2)no1 [Example 53, N-(5-(azetidin-1-yl)-5-oxopentyl)-3-(4-fluorophenyl)isoxazole-5-carboxamide]	++ (NAUC “++” refers to an observed NAUC 170-140% of positive control)	+++ (NAUC “+++” refers to an observed NAUC >170% of positive control)
CN1CCN(C(=O)CCCCNC(=O)c2cc(-c3ccccc3)on2)CC1 [Example 43, N-(5-(4-methylpiperazin-1-yl)-5-oxopentyl)-5-phenylisoxazole-3-carboxamide]	+++ (NAUC “+++” refers to an observed NAUC >170% of positive control)	+++ (NAUC “+++” refers to an observed NAUC >170% of positive control)
O=C(NCCC(=O)N1CCCCC1)c1cc(-c2ccc(F)cc2)on1 [Example 4]	++ (NAUC “++” refers to an observed NAUC 170-140% of positive control)	+++ (NAUC “+++” refers to an observed NAUC >170% of positive control)
N#Cc1ccc(CNC(=O)c2cc(-c3ccc(F)cc3)on2)cc1 [Example 28]	+ (NAUC “+” refers to an observed NAUC <140% of positive control)	+ (NAUC “+” refers to an observed NAUC <140% of positive control)
CC(C)CNC(=O)c1cc(-c2ccc(F)cc2)on1 [Example 22]	+ (NAUC “+” refers to an observed NAUC <140% of positive control)	++ (NAUC “++” refers to an observed NAUC 170-140% of positive control)
CN1CCN(C(=O)CCCCNC(=O)c2cc(-c3ccccc3)no2)CC1 [Example 59]	+++ (NAUC “+++” refers to an observed NAUC >170% of positive control)	+++ (NAUC “+++” refers to an observed NAUC >170% of positive control)
CN1CCN(C(=O)CCNC(=O)c2cc(-c3ccccc3)no2)CC1 [Example 63]	+++ (NAUC “+++” refers to an observed NAUC >170% of positive control)	+++ (NAUC “+++” refers to an observed NAUC >170% of positive control)
CC(C)OCCNC(=O)c1cc(-c2ccc(F)cc2)on1 [Example 20]	+ (NAUC “+” refers to an observed NAUC <140% of positive control)	++ (NAUC “++” refers to an observed NAUC 170-140% of positive control)
O=C(NCCC(=O)N1CCC1)c1cc(-c2ccc(F)cc2)on1 [Example 8]	+++ (NAUC “+++” refers to an observed NAUC >170% of positive control)	+++ (NAUC “+++” refers to an observed NAUC >170% of positive control)
O=C(NCCC(=O)N1CCC1)c1cc(-c2ccccc2)no1 [Example 60, N-(3-(azetidin-1-yl)-3-oxopropyl)-3-phenylisoxazole-5-carboxamide]	+++ (NAUC “+++” refers to an observed NAUC >170% of positive control)	+++ (NAUC “+++” refers to an observed NAUC >170% of positive control)
O=C(NCCC(=O)N1CCOCC1)c1cc(-c2ccc(F)cc2)on1 [Example 10]	++ (NAUC “++” refers to an observed NAUC 170-140% of positive control)	+++ (NAUC “+++” refers to an observed NAUC >170% of positive control)
O=C(NCCC(=O)N1CCCC1)c1cc(-c2ccc(F)cc2)on1 [Example 2]	++ (NAUC “++” refers to an observed NAUC 170-140% of positive control)	+++ (NAUC “+++” refers to an observed NAUC >170% of positive control)
CN1CCN(C(=O)CCNC(=O)c2cc(-c3ccccc3)on2)CC1 [Example 48]	+++ (NAUC “+++” refers to an observed NAUC >170% of positive control)	+++ (NAUC “+++” refers to an observed NAUC >170% of positive control)
O=C(CCNC(=O)c1cc(-c2ccc(F)cc2)on1)NCC1CC1 [Example 6]	++ (NAUC “++” refers to an observed NAUC 170-140% of positive control)	+++ (NAUC “+++” refers to an observed NAUC >170% of positive control)
O=C(NCCCCC(=O)N1CCC1)c1cc(-c2ccc(F)cc2)on1 [Example 16, N-(5-(azetidin-1-yl)-5-oxopentyl)-5-(4-fluorophenyl)isoxazole-3-carboxamide]	+++ (NAUC “+++” refers to an observed NAUC >170% of positive control)	+++ (NAUC “+++” refers to an observed NAUC >170% of positive control)
NS(=O)(=O)c1ccc(CNC(=O)c2cc(-c3ccc(F)cc3)on2)cc1 [Example 18]	++ (NAUC “++” refers to an observed NAUC 170-140% of positive control)	++ (NAUC “++” refers to an observed NAUC 170-140% of positive control)
O=C(NCCc1ccccc1)c1cc(-c2ccc(F)cc2)on1 [Example 17, 5-(4-fluorophenyl)-N-phenethylisoxazole-3-carboxamide]	+ (NAUC “+” refers to an observed NAUC <140% of positive control)	++ (NAUC “++” refers to an observed NAUC 170-140% of positive control)
CC(C)Oc1ccc(CNC(=O)c2cc(-c3ccc(F)cc3)on2)cc1 [Example 19]	+ (NAUC “+” refers to an observed NAUC <140% of positive control)	+ (NAUC “+” refers to an observed NAUC <140% of positive control)
O=C(NCCCCC(=O)N1CCC1)c1cc(-c2ccccc2)no1 [Example 55, N-(5-(azetidin-1-yl)-5-oxopentyl)-3-phenylisoxazole-5-carboxamide]	++ (NAUC “++” refers to an observed NAUC 170-140% of positive control)	+++ (NAUC “+++” refers to an observed NAUC >170% of positive control)
CCNC(=O)c1cc(-c2ccc(F)cc2)on1 [Example 26]	+++ (NAUC “+++” refers to an observed NAUC >170% of positive control)	+++ (NAUC “+++” refers to an observed NAUC >170% of positive control)
CN1CCN(C(=O)CCNC(=O)c2cc(-c3ccc(F)cc3)on2)CC1 [Example 1, 5-(4-fluorophenyl)-N-(3-(4-methylpiperazin-1-yl)-3-oxopropyl)isoxazole-3-carboxamide]	++ (NAUC “++” refers to an observed NAUC 170-140% of positive control)	+++ (NAUC “+++” refers to an observed NAUC >170% of positive control)
O=C(NC1CCCC1)c1cc(-c2ccc(F)cc2)on1 [Example 29]	++ (NAUC “++” refers to an observed NAUC 170-140% of positive control)	++ (NAUC “++” refers to an observed NAUC 170-140% of positive control)
CC(C)CCNC(=O)c1cc(-c2ccc(F)cc2)on1 [Example 31]	++ (NAUC “++” refers to an observed NAUC 170-140% of positive control)	++ (NAUC “++” refers to an observed NAUC 170-140% of positive control)
O=C(NC[C@@H]1CCCO1)c1cc(-c2ccc(F)cc2)on1 [Example 21]	+ (NAUC “+” refers to an observed NAUC <140% of positive control)	++ (NAUC “++” refers to an observed NAUC 170-140% of positive control)
